Patent US20080214675A1, “Hydroxybenzoic Acid Amides and the Use Thereof For Masking Bitter Taste” (SYMRISE GMBH & CO. KG, priority 2004, published 2008)
Counter-ions that a name gives are not always drawn.

Tests used:
[1] = examined in the context of various sweeteners; cited from earlier work
[2] = Bitterness reduction in a bitter principle solution (expert panel rating); type: in vivo; settings: for % reduction in bitterness impression / Testers positive (number of testers who could detect a masking effect) / Bitterness impression (1-10) with: 500 ppm caffeine; for Bitterness impression (1-10) with: error = 95% confidence interval
Method: To quantify the reduction in the bitterness impression, the bitterness of a 500 ppm caffeine or salicin solution and a sample containing 500 ppm of caffeine or salicin and a varying amount of the exemplary compound was determined by a group of experts (rating 0 [not bitter] to 10 [extremely bitter]). The evaluation was made as a calculation of the reduction (in %) of the bitterness impression from the average values for the ratings of the caffeine or salicin solution and the solutions containing caffeine or salicin and the exemplary compound. 2,4-Dihydroxybenzoic acid (2,4-DHB) from U.S. Pat. No. 5,643,941 was used as a comparison.

[3] = Strengthening the sweetness of a yogurt (expert panel rating); type: in vivo
Method: To quantify the strengthening of the sweetness impression, the sweetness of a low-fat (0.1%) commercial yogurt (Optiwell) containing 5% sucrose and of a sample containing […] and an amount of the exemplary compound was determined by a group of experts (rating 0 [not sweet] to 10 [extremely sweet]). The evaluation was made as a calculation of the strengthening (in %) of the sweetness impression from the average values for the ratings of the yogurt containing sucrose and the yogurt containing sucrose and the exemplary compound.

[4] = Strengthening the sweetness of a sugar solution (expert panel rating); type: in vivo; settings: 5% sucrose; for Sweetness impression (1-10) with: error = standard deviation
Method: To quantify the strengthening of the sweetness impression, the sweetness of a 5% sucrose solution and a sample containing […] and an amount of the exemplary compound was determined by a group of experts (rating 0 [not sweet] to 10 [extremely sweet]). The evaluation was made as a calculation of the strengthening (in %) of the sweetness impression from the average values for the ratings of the sucrose solution and the solutions containing sucrose and the exemplary compound. Vanillin was used as a comparison as a typical aromatic substance described as sweet.

[5] = 200 ppm substance, 5% sucrose, low-fat yogurt

| Compound | % reduction in bitterness impression ([2]; 100 ppm substance) | Testers positive (number of testers who could detect a masking effect) ([2]; 100 ppm substance) | Bitterness impression (1-10) with ([2]; 100 ppm substance) | other results |
| --- | --- | --- | --- | --- |
| COc1ccc(CNC(=O)c2c(O)cc(O)cc2O)cc1O [2,4,6-trihydroxybenzoic acid-N-(3-hydroxy-4-methoxybenzyl)amide] | – | – | – | taste [1]: tasteless |
| O=C(O)c1ccc(O)cc1O [2,4-DHB, 2,4-Dihydroxybenzoic acid, reference compound] | 3% | 9 | 5.0 ± 1.0 | – |
| COc1cc(CNC(=O)c2ccc(O)cc2O)ccc1O [Example 1, 2,4-dihydroxybenzoic acid-N-(4-hydroxy-3-methoxybenzyl)amide] | – | – | – | % reduction in bitterness impression ([2]; 20 ppm substance): 29%, p < 0.05; Testers positive (number of testers who could detect a masking effect) ([2]; 20 ppm substance): 11; Bitterness impression (1-10) with ([2]; 20 ppm substance): 4.5 ± 0.6; % strengthening of sweetness impression [3, 5]: 26.5%; Testers positive (number of testers who could detect a strengthening effect) [3, 5]: 12; Sweetness impression (1-10) with ([3]; 200 ppm substance, 5% sucrose, low-fat yogurt, error = standard deviation): 5.4 ± 1.5; descriptors of the yogurt ([3]; yogurt containing the compound): more fullness, less acidic, soft, creamy; preference of the yogurt ([3]; yogurt containing the compound vs yogurt with sucrose only): preferred; % strengthening of sweetness impression ([4]; 100 ppm substance): 7.2%; Testers positive (number of testers who could detect a strengthening effect) ([4]; 100 ppm substance): 7; Sweetness impression (1-10) with ([4]; 100 ppm substance): 5.6 ± 1.7 |
| COc1cc(CNC(=O)c2c(O)cc(O)cc2O)ccc1O [Example 2, 2,4,6-Trihydroxybenzoic acid-N-(4-hydroxy-3-methoxybenzyl)amide] | 24%, p < 0.05 | 8 | 5.1 ± 0.9 | – |
| COc1cc(CNC(=O)c2ccccc2O)ccc1O [Example 3, 2-Hydroxybenzoic acid-N-(4-hydroxy-3-methoxybenzyl)amide] | 23%, p < 0.05 | 12 | 4.1 ± 0.9 | – |
| COc1cc(CNC(=O)c2ccc(O)cc2)ccc1O [Example 4, 4-Hydroxybenzoic acid-N-(4-hydroxy-3-methoxybenzyl)amide] | 26%, p < 0.05 | 9 | 4.5 ± 0.5 | – |
| COc1cc(CNC(=O)c2ccc(O)cc2O)ccc1O [Example 5, 2,4-Dihydroxybenzoic acid-N-4-hydroxy-3-methoxybenzylamide monosodium salt] | 32%, p < 0.05 | 13 | 4.1 ± 1.0 | – |
| COc1cc(CCNC(=O)c2ccc(O)cc2O)ccc1O [Example 6, 2,4-Dihydroxybenzoic acid-N-2-(4-hydroxy-3-methoxyphenyl)ethylamide] | 20%, p < 0.05 | 9 | 3.7 ± 0.8 | – |
| COc1ccc(CNC(=O)c2ccc(O)cc2O)cc1O [Example 9, 2,4-Dihydroxybenzoic acid-N-3-hydroxy-4-methoxybenzylamide, reference compound] | 11% | – | 3.9 ± 0.8 | change in the bitterness impression (bitterness-masking effect) ([2]; application example 1): No statistically significant change |
| COc1cc(C=O)ccc1O [vanillin, Vanillin, reference compound] | – | – | – | % strengthening of sweetness impression ([4]; 600 ppb substance): −3%; Testers positive (number of testers who could detect a strengthening effect) ([4]; 600 ppb substance): 5; Sweetness impression (1-10) with ([4]; 600 ppb substance): 6.0 ± 1.1 |
